Reference: patent US20080262228A1, “Metabolites of 5-fluoro-8- quinoline and methods of preparation and uses thereof” (Wyeth, priority 2006, published 2008)
Counter-ions that a name gives are not always drawn.

Legend:
[1] = Metabolite profiling in liver microsomes and S9; type: in vitro ADME, rat, dog, monkey, human; conditions: liver microsomes and S9, 10 μM COMPOUND I, 30 min; species letters not defined
Description: Microsomal incubations for metabolite profiling were similar to those described above for intrinsic clearance determination (see Table 1). Aliquots of COMPOUND I (10 μL), dissolved in DMSO:methanol (1:9), were added to a 96-well plate containing phosphate buffer, and MgCl2 and the liver microsomes at 37° C. using the same automation apparatus as for the stability study described hereinabove. The reactions were initiated by the addition of the UDPGA and NADPH generating system. The final incubation volume for all samples was 1 mL and the length of incubation was 30 min. […] Three 250 μL aliquots were transferred to a 96-well plate containing 900 μL acetonitrile to precipitate the protein. […] The samples were then reconstituted in 150 μL of 20% methanol in water. The three aliquots for each sample were pooled and analyzed by LC/MS.
S9 incubation buffer and cofactors were chosen to allow N-acetylation and carbamoyl glucuronidation in addition to oxidative and glucuronidation pathways possible in liver microsomes. Incubations of sulfamethazine and SCA-136 with liver S9 were used as positive controls for N-acetylation and carbamoyl glucuronidation, respectively. Following a 30 min. incubation, 750 μL from each sample were added to 900 μL acetonitrile. Following centrifugation and evaporation of the supernatant, the samples were reconstituted in 450 μL of 20% methanol in water for analysis by HPLC/UV and LC/MS (see below).
The HPLC system used for mass spectrometric analysis was an Agilent 1100 HPLC (Agilent Technologies, Palo Alto, Calif.) equipped with a binary pump and a diode array UV detector. The UV detector was set to monitor 190-400 nm. Separations were accomplished on a Luna C18 column (150×2.1 mm, 5 μm) (Phenomenex Incorporated, Torrance, Calif.).
The mass spectrometer used for metabolite characterization was a Finnigan LCQ Deca ion trap mass spectrometer (Thermo Electron Corp.). […] Full scan and data dependent MS2 and MS3 mass spectra were recorded. Finnigan Xcalibur software (version 1.3) was used for control of equipment and recording of data from UV and LC/MS analyses.
Chromatographic profiles of COMPOUND I (10 μM) metabolites in incubations with liver microsomes in the presence of NADPH are presented in FIG. 1. Chromatographic profiles of COMPOUND I (10 μM) metabolites in incubations with liver microsomes in the presence of NADPH and UDPGA are presented in FIG. 2. Chromatographic profiles of COMPOUND I (10 μM) metabolites in incubations with liver S9 in the presence of NADPH, UDPGA and acetyl coenzyme A (CoA) are presented in FIG. 3. In incubations containing NADPH, UDPGA and acetyl CoA, fourteen Phase I metabolites (M1, M6, M8, M12, M13, M14, M15, M16, M17, M18, M20, M21, M22 and M23) and six Phase II metabolites (M2, M3, M5, M7, M9 and M10) were observed. In incubations without cofactors, no metabolites were observed.
LC/MS analysis was conducted on extracts of mouse, rat, monkey and human liver microsomes and S9. The mass spectral data for the characterized COMPOUND I metabolites are discussed below.

[2] = In vivo metabolism of [14C]COMPOUND I in Sprague-Dawley rats, single oral 5 mg/kg dose; parameters: species or system rat; conditions: for Chromatographic Distribution of Radioactivity in Pooled Plasma Samples: 5 mg/kg oral [14C]COMPOUND I
Description: Dose preparation, animal dosing, and specimen collection were performed at Wyeth Research, Collegeville, Pa. The vehicle contained 2% (w/v) polysorbate 80, NF and 0.5% (w/v) methylcellulose (4000 cps) in water. [^14C]COMPOUND I trisuccinate salt (36.6 mg) and non-labeled COMPOUND I trisuccinate salt (26.7 mg) were dissolved in 1 mL of ethanol and suspended in 35 mL of the vehicle with stirring. The target [^14C]COMPOUND I concentration was approximately 1 mg/mL as free base and 70 μCi/mL with a target specific activity of 70 μCi/mg. Three pre- and post-dose aliquots (100 μL) were taken for the determination of radiochemical purity, drug and radioactivity concentrations and specific activity (see below).
Male rats weighing from 323 to 354 g and female rats weighing from 270 to 317 g at the time of dosing were purchased from Charles River Laboratories (Wilmington, Mass.). Non-fasted rats were given a single 5 mg/kg (˜350 μCi/kg) dose of [^14C]COMPOUND I at a volume of 5.0 mL/kg via intragastric gavage. Three rats were dosed for each time point. Animals were provided Purina rat chow and water ad libitum, and were kept individually in metabolism cages.
Blood samples were collected at 1, 3, 6 and 24 hr from male rats and at 1 and 3 hr from female rats after dose administration by cardiac puncture into tubes containing EDTA as the anticoagulant and placing them on ice. Triplicate aliquots (50 μL) of whole blood were removed and plasma was immediately obtained from the remaining blood by centrifugation at 4° C. Whole brain samples were collected after saline perfusion at 1, 3, 6 and 24 hr post-dose from male rats and at 1 and 3 hr post-dose from female rats. Urine samples were collected on dry ice from male rats at intervals of 0-6 and 6-24 hr post-dose. Feces were collected from male rats at 0-24 hr post-dose at room temperature. The biological specimens and aliquots of the dose suspension were stored at approximately −70° C. until analysis.
Triplicate aliquots of diluted dose (20 μL), dose fractions (10 μL), and plasma (50 μL) and urine (100 μL) from individual rats were analyzed for radioactivity concentrations. Radioactivity determinations were made with a Tri-Carb Model 3100 TR liquid scintillation counter (LSC) (Perkin Elmer) using 5 mL of Ultima Gold as the scintillation fluid.
Brain and fecal samples from individual rats were weighed and homogenized in water at a volume-to-weight ratio of about 3:1 and 5:1, respectively, with a Polytron PT homogenizer at ice-cold temperature. Duplicate aliquots of blood (50 μL), brain homogenates (0.2 g) and fecal homogenates (0.2 g) were placed on Combusto-cones with Combusto-pads and allowed to dry overnight. Samples were combusted with a model 307 Tri-Carb Sample Oxidizer, equipped with an Oximate-80 Robotic Automatic Sampler (Perkin Elmer). The liberated ^14CO2 was trapped with Carbo-Sorb E carbon dioxide absorber, mixed with PermaFluor® E^+ liquid scintillation cocktail, and counted in a Tri-Carb Model 3100 TR/LL liquid scintillation counter (Perkin Elmer).
Plasma samples were pooled by equal volumes from three animals at each time point (1, 3, 6 and 24 hr for males; 1 and 3 hr for females). Aliquots of 2 mL of pooled plasma were mixed with 2 mL of acetonitrile, placed on ice for about 10 min, and then centrifuged at 4° C. The supernatant was transferred to a clean tube. The protein pellets were extracted two more times with 4 mL of acetonitrile. The supernatants from precipitation and extraction of each sample were pooled, mixed, and evaporated at 22° C. under nitrogen in a TurboVap LV evaporator (Caliper Life Sciences, Hopkinton, Mass.) to about 1.0 mL. The concentrated extract was centrifuged, the supernatant volume measured and the extraction efficiency was determined by analyzing duplicate 10 μL aliquots for radioactivity concentrations.

[3] = Turnover to metabolites in cryopreserved hepatocytes; conditions: 100 μM, 1 hr
Description: Chromatographic analyses were performed with a Waters Alliance model 2695 HPLC system (Waters Corp., Milford, Mass.) that was equipped with a built-in autosampler. The column eluent was monitored with a model 996 diode array UV detector, set to monitor 250 nm, and a FloOne β Model A525 radioactivity flow detector (Perkin Elmer) with a 250 μL flow cell. Separation of the parent compound from metabolites was accomplished using a Discovery C18 column, 250×4.6 mm, 5 μm (Supelco, Bellefonte, Pa.) at an ambient temperature of approximately 20° C. Mobile phase A was 10 mM ammonium acetate (pH 4.5) and mobile phase B was acetonitrile and they were delivered at 1 mL/min using the gradient described in Table 10. The Ultima Flo M scintillant flow rate was 3 mL/min.
Flo-One analytical software (version 3.65) was utilized to integrate the radioactive peaks. Means and standard deviations were calculated using Microsoft Excel® 2000. Micromass MassLynx software (version 4.0, Waters Corp.) was used for control of LC/MS equipment and recording of data from LC/MS analyses.

[4] = In vivo metabolism and excretion of [14C]COMPOUND I in male beagle dogs, single oral 3 mg/kg dose; parameters: species or system dog; conditions: 3 mg/kg oral
Description: Dose preparation, animal dosing, and specimen collection were performed at Wyeth Research, Collegeville, Pa. The vehicle contained 2% (w/v) polysorbate 80, NF and 0.5% (w/v) methylcellulose (4000 cps) in water. [^14C]COMPOUND I trisuccinate salt (50.25 mg) and non-labeled COMPOUND I trisuccinate salt (331.9 mg) were suspended in 72 mL of the vehicle by grinding with a mortar and a pestle. The target [^14C]COMPOUND I concentration was approximately 3 mg/mL as free base and 48 μCi/mL with a target specific activity of 16 μCi/mg. Three pre- and post-dose aliquots (100 μL) were taken for the determination of radiochemical purity, drug and radioactivity concentrations and specific activity (see below).
Four male beagle dogs, weighing from 9.4 to 11.5 kg at the time of dosing, were from an in-house colony. Non-fasted dogs were given a single 3 mg/kg (approximately 48 μCi/kg) dose of [^14C]COMPOUND I at a volume of 1 mL/kg via intragastric gavage. Animals were provided Purina dog chow and water ad libitum, and were housed individually in metabolic cages.
Blood samples were collected from the jugular vein at 1, 4, 8, 24, 48, 72 and 120 hr after dose administration into tubes containing potassium EDTA as the anticoagulant and then placed on ice. Aliquots of 200 μL were removed and plasma was harvested immediately from the remaining blood by centrifugation at 4° C. Urine samples were collected into tubes on dry ice from 0-24 and 24-48 hr, and then at ambient temperature at 24 hr intervals for 7 days post-dose. Fecal samples were collected at 24 hr intervals for 7 days post-dose at room temperature. Cage rinses were collected daily by rinsing each cage with approximately 500 mL of 30% ethanol in water. The dose aliquots and biological specimens were stored at approximately −70° C. until analysis.
Triplicate aliquots of diluted dose (20 μL), dose fractions (10 μL) and plasma (50 μL), urine (200 μL) and cage wash (500 μL) from individual dogs were analyzed for radioactivity content. The samples were assayed in a Tri-Carb Model 3100TR liquid scintillation counter (Perkin Elmer) using 5 mL of Ultima Gold scintillation cocktail.
Fecal samples from individual dogs were weighed and homogenized in water at a volume-to-weight ratio of about 4:1 with a Silverson sealed-unit homogenizer at ambient temperature. Triplicate aliquots of whole blood (50 μL) and fecal homogenates (approximately 0.2 g) were placed into Combusto-cones with Combusto-pads and allowed to dry overnight. Samples were combusted with a model 307 Tri-Carb Sample Oxidizer, equipped with an Oximate-80 Robotic Automatic Sampler (Perkin Elmer). The liberated ^14CO2 was trapped with Carbo-Sorb® E carbon dioxide absorber, mixed with PermaFluor® E+liquid scintillation cocktail, and counted in a Tri-Carb Model 3100 TR/LL liquid scintillation counter.
Plasma samples were pooled by mixing equal volumes from four animals at each time point (1, 4, 8 and 24 hr). Aliquots of 2.0 mL of pooled plasma were mixed with 2.0 mL of acetonitrile, placed on ice for about 10 min, and then centrifuged at 4° C. The supernatant was transferred to a clean tube. The protein pellets were extracted two more times with 2.0 mL of acetonitrile. The supernatants from precipitation and extraction of each sample were pooled, mixed, and evaporated at 22° C. under nitrogen in a TurboVap LV evaporator (Caliper Life Sciences, Hopkinton, Mass.) to about 0.8 mL. The concentrated extract was centrifuged, the supernatant volume measured and the extraction efficiency was determined by analyzing duplicate 10 μL aliquots for radioactivity concentrations. For metabolite profiling, an aliquot of the supernatant (200 μL) was injected onto the HPLC column as described hereinbelow, and fractions were collected at 20 second intervals into 96-well Lumaplates (Perkin Elmer).

Methoxyquinolinyl-piperazine [Metabolite P1]
Species (in which the metabolite was characterized) [1]: R, D, M, H

O=C(O)C1OC(Oc2cc(N3CCN(C4CCN(c5ccc(F)c6cccnc56)CC4)CC3)c3ncccc3c2)C(O)C(O)C1O (stereo not shown) [Metabolite M11, O-Desmethyl COMPOUND I glucuronide]
Chromatographic Distribution of Radioactivity in Pooled Plasma Samples ([2]; female rats, 1 hr): 56.8% | Chromatographic Distribution of Radioactivity in Pooled Plasma Samples ([2]; female rats, 3 hr): 48.2% | percent of total plasma radioactivity ([2]; male and female rats, range over time points, 5 mg/kg oral): 41.3-56.8% | Chromatographic Distribution of Radioactivity in Pooled Plasma Samples ([2]; male rats, 1 hr): 52.9% | Chromatographic Distribution of Radioactivity in Pooled Plasma Samples ([2]; male rats, 3 hr): 43.1% | Chromatographic Distribution of Radioactivity in Pooled Plasma Samples ([2]; male rats, 6 hr): 41.3%

COc1cc(N2CCN(C3CCN(C4=CC(=O)C(=O)c5cccnc54)CC3)CC2)c2ncccc2c1 [Metabolite M16, Desfluoro COMPOUND I quinone]
Species (in which the metabolite was characterized) [1]: R, M, H

COC1=CC(=O)c2ncccc2C1=O [Metabolite M1, 6-Methoxy-quinoline-5,8-dione]
Species (in which the metabolite was characterized) [1]: R, D, M, H

[^14C]7-Ethoxycoumarin [reference compound]
turnover (positive control) ([3]; dog hepatocytes): 9% | turnover (positive control) ([3]; human hepatocytes): 6% | turnover (positive control) ([3]; rat hepatocytes): 10%

O=S(=O)(O)Oc1cc(N2CCN(C3CCN(c4ccc(F)c5cccnc45)CC3)CC2)c2ncccc2c1 [Metabolite M24, O-Desmethyl COMPOUND I sulfate]
Source ([4]; P, plasma, F, feces): P, F | percent of total fecal radioactivity ([4]; pooled 0-24 hr fecal sample): 4.6% | percent of total fecal radioactivity ([4]; pooled 24-48 hr fecal sample): 19.3%

O=C1C=C(N2CCN(C3CCN(c4ccc(F)c5cccnc45)CC3)CC2)c2ncccc2C1=O [Metabolite M23, Desmethyl COMPOUND I quinone]
Species (in which the metabolite was characterized) [1]: R, D, M, H
